According to US10813926B2, “Morphinan compounds” (Concert Pharmaceuticals, Inc., priority 2008, dated 2020):
Structures can show the parent of a compound that is named as a salt.

Columns and labels:
CYP2D6 = target: T1, CYP2D6 (Homo sapiens, UniProt P10635); test: Metabolic stability in CYP2D6 SUPERSOMES; format: in vitro ADME; details: human, recombinant human CYP2D6 SUPERSOMES, pH 7.4; 50 pmol/mL CYP2D6 SUPERSOMES, 1 μM test compound, 2 mM NADPH, 37° C., 0-30 minutes, triplicate; read-out: t1/2 ± SD, calculated half-life in SUPERSOMES
T1 construct: purchased GenTest (Woburn, Mass., USA)
T1 sequence (P10635 whole entry): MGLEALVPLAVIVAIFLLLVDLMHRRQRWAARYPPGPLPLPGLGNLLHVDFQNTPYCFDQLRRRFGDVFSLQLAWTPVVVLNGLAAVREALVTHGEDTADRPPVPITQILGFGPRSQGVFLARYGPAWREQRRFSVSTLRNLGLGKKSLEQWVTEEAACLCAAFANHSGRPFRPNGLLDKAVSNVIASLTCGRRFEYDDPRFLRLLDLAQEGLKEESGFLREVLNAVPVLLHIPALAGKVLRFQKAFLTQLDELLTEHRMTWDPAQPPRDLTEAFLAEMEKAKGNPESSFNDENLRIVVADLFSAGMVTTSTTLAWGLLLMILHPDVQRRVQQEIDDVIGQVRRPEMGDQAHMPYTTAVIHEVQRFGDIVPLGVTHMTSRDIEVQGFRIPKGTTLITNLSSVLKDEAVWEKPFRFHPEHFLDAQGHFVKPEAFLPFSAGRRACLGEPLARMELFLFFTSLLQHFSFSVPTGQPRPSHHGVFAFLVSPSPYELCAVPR
Procedure: (§1) Human CYP2D6 SUPERSOMES™ were purchased from GenTest (Woburn, Mass., USA). 7.5 mM stock solutions of test compounds (Compounds 100, 102, 104, 106, dextromethorphan, a deuterated analog of dextromethorphan wherein each methyl group was replaced with CD3 (“d6-dextromethorphan”, chemical name (+)-3-d3-methoxy-17-d3-methyl-(9α,13α,14α)-morphinan, also referred to as Compound 101 in U.S. Ser. No. 12/112,936, and as “Test Compound” in FIG. 1 and Table 2 below), the ethyl ether analog of dextromethorphan (“dextroethorphan”) or the isopropyl ether analog of dextromethorphan (“dextroisoproporphan”)) were prepared in DMSO. The 7.5 mM stock solutions were diluted to 50 μM in acetonitrile (ACN). The 1000 pmol/mL CYP2D6 supersomes were diluted to 62.5 pmol/mL in 0.1 M potassium phosphate buffer, pH 7.4, containing 3 mM MgCl2. The diluted SUPERSOMES™ were added to wells of a 96-well deep-well polypropylene plate in triplicate. 10 μL of the 50 μM test compound was added to the supersomes and the mixture was pre-warmed for 10 minutes. Reactions were initiated by addition of pre-warmed NADPH solution. The final reaction volume was 0.5 mL and contained 50 pmol/mL CYP2D6 SUPERSOMES™, 1 μM test compound, and 2 mM NADPH in 0.1 M potassium phosphate buffer, pH 7.4, and 3 mM MgCl2. The reaction mixtures were incubated at 37° C. and 50 μL aliquots were removed at 0, 5, 10, 20, and 30 minutes and added to shallow-well 96-well plates which contained 50 μL of ice-cold ACN with internal standard to stop the reactions. The plates were stored at 4° C. for 20 minutes after which 100 μL of water was added to the wells of the plate before centrifugation to pellet precipitated proteins. Supernatants were transferred to another 96-well plate and analyzed for amounts of parent remaining by LC-MS/MS using an Applied Bio-systems API 4000 mass spectrometer.
(§2) The in vitro half-life (t1/2) for each of the test compounds was calculated from the slopes of the linear regression of % parent remaining (ln) vs incubation time relationship: in vitro t1/2=0.693/k, where k=−[slope of linear regression of % parent remaining(ln) vs incubation time]. Data analysis was performed using Microsoft Excel Software.

[1] = Metabolic stability using human liver microsomes; format: in vitro ADME; details: for half-life at 1 μM: pH 7.4, read-out: t1/2 ± SD, calculated half-life in human liver microsomes; for half-life at 1 μM / t1/2 ± SD, calculated half-life in human liver microsomes: 1.0 mg/mL human liver microsomes, 1 μM test compound, 2 mM NADPH, 37° C., triplicate
Procedure: Human liver microsomes (20 mg/mL) were obtained from Xenotech, LLC (Lenexa, Kans.). β-nicotinamide adenine dinucleotide phosphate, reduced form (NADPH), magnesium chloride (MgCl2), and dimethyl sulfoxide (DMSO) were purchased from Sigma-Aldrich.
7.5 mM stock solutions of test compounds were prepared in DMSO. The 7.5 mM stock solutions were diluted to 50 μM in acetonitrile (ACN). The 20 mg/mL human liver microsomes were diluted to 1.25 mg/mL (1 mg/mL final) in 0.1 M potassium phosphate buffer, pH 7.4, containing 3 mM MgCl2. The diluted microsomes (375 μL) were added to wells of a 96-well polypropylene plate in triplicate. 10 μL of the 50 μM test compound was added to the microsomes and the mixture was pre-warmed for 10 minutes. Reactions were initiated by addition of 125 μL of pre-warmed NADPH solution. The final reaction volume was 0.5 mL and contained 1.0 mg/mL human liver microsomes, 1 μM test compound, and 2 mM NADPH in 0.1 M potassium phosphate buffer, pH 7.4, and 3 mM MgCl2. The reaction mixtures were incubated at 37° C., and 50 μL aliquots were removed at 0, 5, 10, 20, and 30 minutes and added to shallow 96-well plates which contained 50 μL of ice-cold ACN with internal standard to stop the reactions. The plates were stored at 4° C. for 20 minutes after which 100 μL of water was added to the wells of the plate before centrifugation to pellet precipitated proteins. Supernatants were transferred to another 96-well plate and analyzed for amounts of parent remaining by LC-MS/MS using an Applied Bio-systems API 4000 mass spectrometer.
7-ethoxy coumarin was used as a positive control.
The in vitro t1/2s for test compounds were calculated from the slopes of the linear regression of % parent remaining (ln) vs incubation time relationship:
in vitro t1/2=0.693/k, where k=−[slope of linear regression of % parent remaining(ln) vs incubation time]
Data Analysis was Performed Using Microsoft Excel Software.

Human CYP2D6 SUPERSOMES = target: T2, Human CYP2D6 SUPERSOMES (Homo sapiens, UniProt P10635); test: Metabolic stability in CYP2D6 SUPERSOMES; format: in vitro ADME; details: 50 pmol/mL CYP2D6 SUPERSOMES, 1 μM test compound, 2 mM NADPH, 37° C., 0-30 minutes, triplicate
T2 construct: purchased GenTest (Woburn, Mass., USA)
T2 sequence (P10635 whole entry): as above
Procedure: as §1, §2

[2] = healthy human males; cited from earlier work
[3] = Table 3, vs dextroethorphan or dextroisoproporphan

[2H]C([2H])([2H])C([2H])(Oc1ccc2c(c1)[C@]13CCCC[C@@H]1[C@H](C2)N(C)CC3)C([2H])([2H])[2H] [Compound 106, (+)-3-(Isopropoxy-d7)-17-methyl-(9α,13α,14α)-morphinan]
half-life at 1 μM (CYP2D6): 36 ± 2.8 min | Change over non-deuterated compound (half-life) [1, 3]: 91% | half-life at 1 μM ([1]; Table 3): 68.8 ± 0.9 min

[2H]C([2H])([2H])Oc1ccc2c(c1)[C@]13CCCC[C@@H]1[C@H](C2)N(C([2H])([2H])[2H])CC3 [Test Compound, (+)-3-d3-methoxy-17-d3-methyl-(9α,13α,14α)-morphinan, reference compound]
t1/2 ± SD, calculated half-life in SUPERSOMES (Human CYP2D6 SUPERSOMES): 5.6 ± 1.5 min

COc1ccc2c(c1)[C@]13CCCC[C@@H]1[C@H](C2)N(C)CC3 [Dextromethorphan, (+)-3-methoxy-17-methyl-(9α,13α,14α)-morphinan, reference compound]
t1/2 ± SD, calculated half-life in SUPERSOMES (Human CYP2D6 SUPERSOMES): 1.7 ± 0.3 min

CC(C)Oc1ccc2c(c1)[C@@]13CCCC[C@H]1[C@@H](C2)N(C)CC3 [Dextroisoproporphan, (+)-3-(2-propoxy)-17-methyl-morphinan, reference compound]
half-life at 1 μM (CYP2D6): 21.7 ± 1.6 min | half-life at 1 μM ([1]; Table 3): 36.1 ± 1.6 min

[2H]C([2H])([2H])C([2H])([2H])Oc1ccc2c(c1)[C@]13CCCC[C@@H]1[C@H](C2)N(C)CC3 [Compound 104, (+)-3-(Ethoxy-d5)-17-methyl-(9α,13α,14α)-morphinan hydrochloride]
t1/2 ± SD, calculated half-life in SUPERSOMES (Human CYP2D6 SUPERSOMES): 49.1 ± 4.1 min | t1/2 ± SD, calculated half-life in human liver microsomes ([1]; Table 3): 59.1 ± 2.2 min | Change over non-deuterated compound (half-life) [1, 3]: 109%

[2H]C([2H])([2H])N1CC[C@@]23CCCC[C@@H]2[C@@H]1Cc1ccc(OC([2H])(C([2H])([2H])[2H])C([2H])([2H])[2H])cc13 [Compound 102, (+)-3-(Isopropoxy-d7)-17-(methyl-d3)-(9α,13α,14α)-morphinan]
half-life at 1 μM (CYP2D6): 39 ± 1.9 min | Change over non-deuterated compound (half-life) [1, 3]: 69% | half-life at 1 μM ([1]; Table 3): 61 ± 0.4 min

[2H]C([2H])([2H])N1CC[C@@]23CCCC[C@@H]2[C@@H]1Cc1ccc(OC([2H])([2H])C([2H])([2H])[2H])cc13 [Compound 100, (+)-3-(Ethoxy-d5)-17-(methyl-d3)-(9α,13α,14α)-morphinan hydrochloride]
t1/2 ± SD, calculated half-life in SUPERSOMES (Human CYP2D6 SUPERSOMES): 51.3 ± 3.7 min | t1/2 ± SD, calculated half-life in human liver microsomes ([1]; Table 3): 59.2 ± 1.7 min | Change over non-deuterated compound (half-life) [1, 3]: 109%

[2H]C([2H])([2H])c1ccc2c(c1)[C@]13CCCC[C@@H]1[C@H](C2)N(C)CC3 [Compound 108, (+)-3-(Methyl-d3)-17-methyl-(9α,13α,14α)-morphinan]
Change over non-deuterated compound (half-life) ([1]; Table 4, vs dimemorfan): 21%

[2H]C([2H])([2H])c1ccc2c(c1)[C@]13CCCC[C@@H]1[C@H](C2)N(C([2H])([2H])[2H])CC3 [Compound 110, (+)-3-(Methyl-d3)-17-(methyl-d3)-(9α,13α,14α)-morphinan]
Change over non-deuterated compound (half-life) ([1]; Table 4, vs dimemorfan): 37%

CCOc1ccc2c(c1)[C@@]13CCCC[C@H]1[C@@H](C2)N(C)CC3 [Dextroethorphan, (+)-3-ethoxy-17-methylmorphinan, reference compound]
t1/2 ± SD, calculated half-life in SUPERSOMES (Human CYP2D6 SUPERSOMES): 10.3 ± 2.1 min | t1/2 ± SD, calculated half-life in human liver microsomes ([1]; Table 3): 28.3 ± 0.6 min

Cc1ccc2c(c1)[C@]13CCCC[C@@H]1[C@H](C2)N(C)CC3 [Dimemorfan, (+)-(9α,13α,14α)-3,17-dimethylmorphinan]
fraction of a dose metabolized [2]: Greater than 98%
